Measurements: ChEMBL document CHEMBL3046607, “Synthesis and Herbicidal Activity of New 1-Alkyl-3-aryloxypyrazole-4-carboxamide Derivatives” (J Pestic Sci, 2004)
Activity calls are given as the source filed them. The calls are words filed in the database; no cut-off is given here.

Tests used:
[1] = system: Ammannia multiflora; test: Post-emergence herbicidal activity against Ammannia multiflora assessed as bleaching of stem/leaf parts; format: functional, organism-based
[2] = system: Lindernia procumbens; test: Pre-emergence herbicidal activity against Lindernia procumbens at 33 g a.i/ha measured after 14 days; format: functional, organism-based
[3] = system: Pontederia vaginalis; test: Post-emergence herbicidal activity against Monochoria vaginalis assessed as bleaching of stem/leaf parts; format: functional, organism-based
[4] = system: Cyperus difformis; test: Pre-emergence herbicidal activity against Cyperus difformis at 500 g a.i/ha measured after 14 days; format: functional, organism-based
[5] = system: Ammannia multiflora; test: Pre-emergence herbicidal activity against Ammannia multiflora at 500 g a.i/ha measured after 14 days; format: functional, organism-based
[6] = system: Ammannia multiflora; test: Pre-emergence herbicidal activity against Ammannia multiflora assessed as bleaching of stem/leaf parts; format: functional, organism-based
[7] = system: Schoenoplectiella juncoides; test: Post-emergence herbicidal activity against Schoenoplectiella juncoides assessed as bleaching of stem/leaf parts; format: functional, organism-based; further: test concentration or dose not given here
[8] = system: Rotala indica; test: Pre-emergence herbicidal activity against Rotala indica at 500 g a.i/ha measured after 14 days; format: functional, organism-based
[9] = system: Lindernia procumbens; test: Pre-emergence herbicidal activity against Lindernia procumbens at 500 g a.i/ha measured after 14 days; format: functional, organism-based
[10] = system: Echinochloa oryzicola; test: Pre-emergence herbicidal activity against Echinochloa oryzicola at 33 g a.i/ha measured after 14 days; format: functional, organism-based
[11] = system: Rotala indica; test: Pre-emergence herbicidal activity against Rotala indica at 33 g a.i/ha measured after 14 days; format: functional, organism-based
[12] = system: Elatine triandra; test: Pre-emergence herbicidal activity against Elatine triandra at 500 g a.i/ha measured after 14 days; format: functional, organism-based
[13] = system: Pontederia vaginalis; test: Pre-emergence herbicidal activity against Monochoria vaginalis at 500 g a.i/ha measured after 14 days; format: functional, organism-based
[14] = system: Cyperus difformis; test: Post-emergence herbicidal activity against Cyperus difformis assessed as bleaching of stem/leaf parts; format: functional, organism-based; further: test concentration or dose not given here
[15] = system: Schoenoplectiella juncoides; test: Pre-emergence herbicidal activity against Schoenoplectiella juncoides at 500 g a.i/ha measured after 14 days; format: functional, organism-based
[16] = system: Oryza sativa; test: Phytotoxicity against Oryza sativa cv. Koshihikari (rice) at 100 g a.i/ha measured after 14 days; format: organism-based; details: in vivo, 336 h
[17] = system: Oryza sativa; test: Phytotoxicity against Oryza sativa cv. Koshihikari (rice) at 500 g a.i/ha measured after 14 days; format: organism-based; details: in vivo, 336 h
[18] = system: Cyperus difformis; test: Pre-emergence herbicidal activity against Cyperus difformis at 33 g a.i/ha measured after 14 days; format: functional, organism-based
[19] = system: Schoenoplectiella juncoides; test: Pre-emergence herbicidal activity against Schoenoplectiella juncoides assessed as bleaching of stem/leaf parts; format: functional, organism-based
[20] = system: Elatine triandra; test: Pre-emergence herbicidal activity against Elatine triandra at 100 g a.i/ha measured after 14 days; format: functional, organism-based
[21] = system: Lindernia procumbens; test: Pre-emergence herbicidal activity against Lindernia procumbens assessed as bleaching of stem/leaf parts; format: functional, organism-based
[22] = system: Elatine triandra; test: Pre-emergence herbicidal activity against Elatine triandra at 33 g a.i/ha measured after 14 days; format: functional, organism-based
[23] = system: Ammannia multiflora; test: Pre-emergence herbicidal activity against Ammannia multiflora at 100 g a.i/ha measured after 14 days; format: functional, organism-based
[24] = system: Cyperus difformis; test: Pre-emergence herbicidal activity against Cyperus difformis at 100 g a.i/ha measured after 14 days; format: functional, organism-based
[25] = system: Cyperus difformis; test: Pre-emergence herbicidal activity against Cyperus difformis assessed as bleaching of stem/leaf parts; format: functional, organism-based
[26] = system: Echinochloa oryzicola; test: Pre-emergence herbicidal activity against Echinochloa oryzicola at 500 g a.i/ha measured after 14 days; format: functional, organism-based
[27] = system: Elatine triandra; test: Post-emergence herbicidal activity against Elatine triandra assessed as bleaching of stem/leaf parts; format: functional, organism-based; further: test concentration or dose not given here
[28] = system: Lindernia procumbens; test: Pre-emergence herbicidal activity against Lindernia procumbens at 100 g a.i/ha measured after 14 days; format: functional, organism-based
[29] = system: Pontederia vaginalis; test: Pre-emergence herbicidal activity against Monochoria vaginalis at 33 g a.i/ha measured after 14 days; format: functional, organism-based
[30] = system: Schoenoplectiella juncoides; test: Pre-emergence herbicidal activity against Schoenoplectiella juncoides at 100 g a.i/ha measured after 14 days; format: functional, organism-based
[31] = system: Echinochloa oryzicola; test: Post-emergence herbicidal activity against Echinochloa oryzicola assessed as bleaching of stem/leaf parts; format: functional, organism-based
[32] = system: Echinochloa oryzicola; test: Pre-emergence herbicidal activity against Echinochloa oryzicola at 100 g a.i/ha measured after 14 days; format: functional, organism-based
[33] = system: Rotala indica; test: Pre-emergence herbicidal activity against Rotala indica assessed as bleaching of stem/leaf parts; format: functional, organism-based
[34] = system: Pontederia vaginalis; test: Pre-emergence herbicidal activity against Monochoria vaginalis assessed as bleaching of stem/leaf parts; format: functional, organism-based
[35] = system: Rotala indica; test: Post-emergence herbicidal activity against Rotala indica assessed as bleaching of stem/leaf parts; format: functional, organism-based
[36] = system: Rotala indica; test: Pre-emergence herbicidal activity against Rotala indica at 100 g a.i/ha measured after 14 days; format: functional, organism-based
[37] = system: Echinochloa oryzicola; test: Pre-emergence herbicidal activity against Echinochloa oryzicola assessed as bleaching of stem/leaf parts; format: functional, organism-based
[38] = system: Pontederia vaginalis; test: Pre-emergence herbicidal activity against Monochoria vaginalis at 100 g a.i/ha measured after 14 days; format: functional, organism-based
[39] = system: Oryza sativa; test: Phytotoxicity against Oryza sativa cv. Koshihikari (rice) at 33 g a.i/ha measured after 14 days; format: organism-based; details: in vivo, 336 h
[40] = system: Schoenoplectiella juncoides; test: Pre-emergence herbicidal activity against Schoenoplectiella juncoides at 33 g a.i/ha measured after 14 days; format: functional, organism-based
[41] = system: Elatine triandra; test: Pre-emergence herbicidal activity against Elatine triandra assessed as bleaching of stem/leaf parts; format: functional, organism-based
[42] = system: Ammannia multiflora; test: Pre-emergence herbicidal activity against Ammannia multiflora at 33 g a.i/ha measured after 14 days; format: functional, organism-based
[43] = system: Lindernia procumbens; test: Post-emergence herbicidal activity against Lindernia procumbens assessed as bleaching of stem/leaf parts; format: functional, organism-based; further: test concentration or dose not given here

## Cn1cc(C(=O)Nc2ccccc2)c(Oc2cccc(C(F)(F)F)c2)n1
[1]
  Activity: Active
[2]
  Activity: Active
[3]
  Activity: Active
[4]
  Activity: Active
[5]
  Activity: Active
[6]
  Activity: Active
[7]
  Activity: Active
[8]
  Activity: Active
[9]
  Activity: Active
[10]
  Activity: inactive
[11]
  Activity: Active
[12]
  Activity: Active
[13]
  Activity: Active
[14]
  Activity: Active
[15]
  Activity: Active
[16]
  Activity: Non-toxic
[17]
  Activity: Toxic
[18]
  Activity: Active
[19]
  Activity: Active
[20]
  Activity: Active
[21]
  Activity: Active
[22]
  Activity: Active
[23]
  Activity: Active
[24]
  Activity: Active
[25]
  Activity: Active
[26]
  Activity: Active
[27]
  Activity: Active
[28]
  Activity: Active
[29]
  Activity: Active
[30]
  Activity: Active
[31]
  Activity: Active
[32]
  Activity: Active
[33]
  Activity: Active
[34]
  Activity: Active
[35]
  Activity: Active
[36]
  Activity: Active
[37]
  Activity: Active
[38]
  Activity: Active
[39]
  Activity: Non-toxic
[40]
  Activity: inactive
[41]
  Activity: Active
[42]
  Activity: Active
[43]
  Activity: Active

## CCONC(=O)c1cn(C)nc1Oc1cccc(C(F)(F)F)c1
[1]
  Activity: Active
[3]
  Activity: Active
[4]
  Activity: Active
[5]
  Activity: Active
[6]
  Activity: Active
[7]
  Activity: Active
[8]
  Activity: Active
[9]
  Activity: Active
[12]
  Activity: Active
[13]
  Activity: Active
[14]
  Activity: Active
[15]
  Activity: Active
[16]
  Activity: Non-toxic
[17]
  Activity: Toxic
[19]
  Activity: Active
[20]
  Activity: inactive
[21]
  Activity: Active
[23]
  Activity: inactive
[24]
  Activity: inactive
[25]
  Activity: Active
[26]
  Activity: Active
[27]
  Activity: Active
[28]
  Activity: inactive
[30]
  Activity: inactive
[31]
  Activity: Active
[32]
  Activity: Active
[33]
  Activity: Active
[34]
  Activity: Active
[35]
  Activity: Active
[36]
  Activity: inactive
[37]
  Activity: Active
[38]
  Activity: inactive
[41]
  Activity: Active
[43]
  Activity: Active

## CCONC(=O)c1cn(C)nc1OCc1cccc(C(F)(F)F)c1
[1]
  Activity: Active
[2]
  Activity: Active
[3]
  Activity: Active
[6]
  Activity: Active
[7]
  Activity: Active
[10]
  Activity: Active
[11]
  Activity: Active
[14]
  Activity: Active
[16]
  Activity: Non-toxic
[18]
  Activity: Active
[19]
  Activity: Active
[20]
  Activity: Active
[21]
  Activity: Active
[22]
  Activity: Active
[23]
  Activity: Active
[24]
  Activity: Active
[25]
  Activity: Active
[27]
  Activity: Active
[28]
  Activity: Active
[29]
  Activity: Active
[30]
  Activity: Active
[31]
  Activity: Active
[32]
  Activity: Active
[33]
  Activity: Active
[34]
  Activity: Active
[35]
  Activity: Active
[36]
  Activity: Active
[37]
  Activity: Active
[38]
  Activity: Active
[39]
  Activity: Non-toxic
[40]
  Activity: Active
[41]
  Activity: Active
[42]
  Activity: Active
[43]
  Activity: Active

## Cn1cc(C(=O)Nc2ccc(C(C)(C)C)cc2)c(Oc2cccc(C(F)(F)F)c2)n1
[1]
  Activity: Active
[3]
  Activity: Active
[6]
  Activity: Active
[7]
  Activity: Active
[14]
  Activity: Active
[16]
  Activity: Non-toxic
[19]
  Activity: Active
[20]
  Activity: inactive
[21]
  Activity: Active
[23]
  Activity: inactive
[24]
  Activity: inactive
[25]
  Activity: Active
[27]
  Activity: Active
[28]
  Activity: inactive
[30]
  Activity: inactive
[31]
  Activity: Active
[32]
  Activity: inactive
[33]
  Activity: Active
[34]
  Activity: Active
[35]
  Activity: Active
[36]
  Activity: inactive
[37]
  Activity: Active
[38]
  Activity: inactive
[41]
  Activity: Active
[43]
  Activity: Active
